Experimental data from patent publication US20130289070A1, “Use of Levocabastine for Modulating Generation of Pro-Inflammatory Cytokines” (Bausch & Lomb Incorporated, priority 2007, published 2013).

System: EoL-1 (human eosinophilic leukaemia cell line) cells
Assay: TNF-α-induced cytokine release, EoL-1 cells differentiated with PMA (Luminex)
Assay type: cell-based
Set-up: key to IL-1α (PMA), p of decrement / IL-1β (PMA), p of decrement / IL-1ra (PMA), p of decrement / IL-5 (PMA), p of decrement / IL-7 (PMA), p of decrement / IL-8 (PMA), p of decrement / IP-10 (PMA), p of decrement / MCP-1 (PMA), p of decrement / MIP-1β (PMA), p of decrement / RANTES (PMA), p of decrement / VEGF (PMA), p of decrement / Fractalkine (PMA), p of decrement / MIP-1α (PMA), p of decrement: ns = non significant
Description: EoL-1 (human eosinophilic leukaemia cell line) cells (Saito et al., 1985; Mayumi, 1992) were maintained in RPMI-1640 medium with L-glutamine supplemented with 10% (v/v) FBS at 37° C. in a humidified atmosphere with 5% CO2. Where indicated, 24 h before the experiment 25 ng/mL PMA ((phorbol 12-myristate 13-acetate, purchased from Sigma Aldrich) was added to the medium to induce eosinophil granulation and differentiation (Ohtsu et al., 1993; Zimmermann et al., 2000).
Half-million cells were aliquoted per point in a 24 well plate; each experiment was performed in triplicate and carried out in parallel with eosinophils differentiated and non differentiated with PMA (25 ng/mL, 24 h). Cells were suspended in low serum medium (RPMI-1640, 0.1% (v/v) FBS). TNF-α was used to induce cytokine secretion as previously described by Steube et al. (2000), and the net release was obtained by comparison to the basal (non-TNF-α treated). In the first experiment we evaluated the concentration and time relation between TNF-α stimulation and cytokine release. Therefore, 5, 10, and 25 ng/mL of TNF-α was administered to the cells at 0, ½, 1, 2, 3, 6, 12 and 24 h (data not shown). An aliquot of 150 μL of supernate was collected for cytokines' analysis. […] Differentiated and non-differentiated EoL-1 cells were exposed from 0.1 to 2.3 mM levocabastine ([…]Levocabastine 0.05% solution eye drops containing cyclodextrins, without benzalkonium chloride), and aliquots of the supernates were collected after 12 and 24 h. The content of cytokines at time zero was estimated by treating the cells with 400 nM calcimycin (A-23187), which is a cytolytic agent that frees all the mediators from the cytoplasmic compartment. In addition, for each experiment we tested the effect of the vehicle, which was added to the wells in a concentration equal to the maximum amount used for drug dilution.
Samples (supernates 12 and 24 h) in triplicate were analyzed using Luminex 200™ (Luminex, Austin, Tex.) and Beadview software v1.0 (Upstate Cell Signaling Solutions, Temecula, Calif.).
All data are presented as mean±SEM for the indicated number of experiments. Statistical significance was determined by Newman-Keuls test after ANOVA using GraphPad Prism (version 3.0; GraphPad Software Inc., San Diego, Calif., USA). P-values<0.05 were considered to be significant.

[1] = 12 h, TNF-α 5 ng + Levocabastine 2 mM vs TNF-α
[2] = 12 h, TNF-α 10 ng + Levocabastine 2 mM vs TNF-α
[3] = 12 h, TNF-α 20 ng + Levocabastine 2 mM vs TNF-α
[4] = 12 h, TNF-α 5, 10, 20 ng + Levocabastine 2 mM vs TNF-α

## C[C@@H]1CN([C@H]2CC[C@](C#N)(c3ccc(F)cc3)CC2)CC[C@]1(C(=O)O)c1ccccc1 [Levocabastine, levocabastine]
2 mM, TNF-α 5, 10 and 20 ng, 24 h, differentiated with PMA (FIG. 9)
  release of IL-8 induced by TNF-α: capable of reducing the release
0.1, 0.5 and 1.0 mM, 12 h, differentiated with PMA (FIG. 2)
  release of IL-1-ra induced by TNF-α: capable to prevent the release
0.1, 0.5 and 1.0 mM, 12 h, differentiated with PMA (FIG. 3)
  release of IL-1β induced by TNF-α: capable to prevent the release
[1]
  Fractalkine (PMA), p of decrement: ns
  G-CSF (PMA), p of decrement: ns
  GM-CSF (PMA), p of decrement: ns
  IL-1β (PMA), p of decrement: ns
  IL-5 (PMA), p of decrement: ns
  IL-6 (PMA), p of decrement: ns
  IL-7 (PMA), p of decrement: ns
  IL-8 (PMA), p of decrement: ns
  IL-10 (PMA), p of decrement: ns
  IL-12p40 (PMA), p of decrement: P < 0.001
  IP-10 (PMA), p of decrement: ns
  MCP-1 (PMA), p of decrement: ns
  MIP-1α (PMA), p of decrement: ns
  TGF-α (PMA), p of decrement: ns
  VEGF (PMA), p of decrement: P < 0.01
[2]
  Fractalkine (PMA), p of decrement: ns
  G-CSF (PMA), p of decrement: ns
  GM-CSF (PMA), p of decrement: ns
  IL-1β (PMA), p of decrement: ns
  IL-5 (PMA), p of decrement: ns
  IL-6 (PMA), p of decrement: ns
  IL-7 (PMA), p of decrement: ns
  IL-8 (PMA), p of decrement: ns
  IL-10 (PMA), p of decrement: ns
  IL-12p40 (PMA), p of decrement: P < 0.001
  IP-10 (PMA), p of decrement: ns
  MCP-1 (PMA), p of decrement: ns
  MIP-1α (PMA), p of decrement: ns
  TGF-α (PMA), p of decrement: ns
  VEGF (PMA), p of decrement: ns
[3]
  Fractalkine (PMA), p of decrement: ns
  G-CSF (PMA), p of decrement: ns
  GM-CSF (PMA), p of decrement: ns
  IL-1β (PMA), p of decrement: ns
  IL-5 (PMA), p of decrement: ns
  IL-6 (PMA), p of decrement: ns
  IL-7 (PMA), p of decrement: ns
  IL-8 (PMA), p of decrement: ns
  IL-10 (PMA), p of decrement: ns
  IL-12p40 (PMA), p of decrement: P < 0.001
  IP-10 (PMA), p of decrement: ns
  MCP-1 (PMA), p of decrement: ns
  MIP-1α (PMA), p of decrement: ns
  TGF-α (PMA), p of decrement: ns
  VEGF (PMA), p of decrement: ns
[4]
  IL-1ra (PMA), p of decrement: increase of cytokine secretion
  IL-1α (PMA), p of decrement: increase of cytokine secretion
  MIP-1β (PMA), p of decrement: increase of cytokine secretion
  RANTES (PMA), p of decrement: increase of cytokine secretion
12 h, TNF-α vs Lev 0.1 mM
  Fractalkine (PMA), p of decrement: ns
  IL-1ra (PMA), p of decrement: p < 0.01
  IL-1α (PMA), p of decrement: ns
  IL-1β (PMA), p of decrement: ns
  IL-5 (PMA), p of decrement: ns
  IL-7 (PMA), p of decrement: ns
  IL-8 (PMA), p of decrement: ns
  IP-10 (PMA), p of decrement: ns
  MCP-1 (PMA), p of decrement: ns
  MIP-1β (PMA), p of decrement: ns
  RANTES (PMA), p of decrement: ns
  VEGF (PMA), p of decrement: ns
12 h, TNF-α vs Lev 0.5 mM
  Fractalkine (PMA), p of decrement: ns
  IL-1ra (PMA), p of decrement: p < 0.001
